The text below walks through data of US20240219394A1, “METHOD FOR MEASURING RESPONSE OF OLFACTORY RECEPTOR TO SUBSTANCE” (AJINOMOTO CO., INC., priority 2021, published 2024).

For this assay, the system named is control cells (HEK293T cells transfected with the empty vector Rho-pME18S). Kind of assay: Luciferase assay: response of control cells to adenosine. The class given is cell-based, human. Conditions: FIG. 1.

Protocol: HEK293T cells expressing each of the 352 kinds of olfactory receptors were prepared according to the following procedure. […] The gene mixture and transfection reagent mixture were mixed, dispensed into each well of a poly-D-lysine-coated 384-well plate in a volume of 12.5 μL, and allowed to stand for 15 minutes in a clean bench. The HEK293T cells inoculated in 10-cm petri dishes on the previous day (2.5×10^6 cells/10 cm petri dish) were prepared at a density of 1.2×10^5 cells/mL, inoculated into each well of the 384-well plate in a volume of 25 μL, and cultured overnight in an incubator maintained at 37° C. and 5% C02. […]
The 352 olfactory receptors expressed in HEK293T cells couple with Golf to activate adenylate cyclase, thereby increasing the amount of intracellular cAMP. In this example, responses of the olfactory receptors to the test substances were measured by using a luciferase reporter gene assay, in which increase in intracellular cAMP amount is monitored as an increase in firefly luciferase-derived luminescence. […] In addition, luminescence value derived from Renilla luciferase was used as an internal standard to correct errors due to differences of gene transfer efficiency and cell number among the wells. […]

For the molecule `Nc1ncnc2c1ncn2[C@@H]1O[C@H](CO)[C@@H](O)[C@H]1O` [adenosine], the “Response of control cells to adenosine (Luc/hRluc value, increase in cAMP)” value is listed as “caused increase in cAMP”.
